Laboratory results taken from patent US20110052722A1, “Toleration Iron Supplement Compositions” (priority 2005, published 2011).

Legend:
[1] = cited from earlier work
[2] = total administration should not exceed; cited from earlier work
[3] = system: Sprague Dawley Crl:CD(SD) rats; experiment: Repeated daily oral gavage study in rats: hematology, serum iron, gross necropsy; type: in vivo; conditions: once per day oral gavage
Procedure: The test material solution or vehicle control was administered once per day by oral gavage administration, and individual dose volumes were calculated based on the most recent body weight data for each animal.
General health/mortality and moribundity checks were performed twice daily, and detailed clinical observations were performed on days 1, 8, and 15 prior to dosing. Hematology parameters were evaluated for all animals on days 1, 7, and 14. Blood collection for serum iron concentration evaluation was performed on these days as well, and blood samples were obtained via the orbital plexus while the animals were under light isoflurane anesthesia. All animals were subjected to complete gross necropsy examination at scheduled euthanasia.
Blood samples for hematology testing were collected in volumes of about 200 μL in tubes containing anticoagulant K2EDTA, and were evaluated for red blood cell count (RBC), hemoglobin concentration (Hb), hematocrit (Hct), mean corpuscular volume (MCV), mean corpuscular hemoglobin concentration (MCHC), mean corpuscular hemoglobin (MCH), reticulocyte count (Retic), red blood cell morphology, white blood cell count (WBC), neutrophil count (Neut), lymphocyte count (Lymph), monocyte count (Mono), eosinophil count (Eos), and basophil count (Baso). Serum iron was measured by taking about 1 mL blood samples in a serum separator tube.

[4] = versus ferrous sulfate and/or ferrous fumarate, Newton et al. 1980, Piccinni et al. 1982

| Compound | efficacy at increasing hemoglobin and hematocrit values [1, 4] | tolerability [1, 4] | gastrointestinal side effects ([1]; versus ferrous sulfate, Johnson et al., Niferex-150 in ESRD patients receiving EPOGEN) | toxicity limits [2] | immune response (segmented neutrophils, platelets, lymphocytes) ([3]; Group 2 500 mg Fe/kg, Group 3 250 + 250 mg Fe/kg, hematology days 1, 7, 14) | gross internal findings at necropsy ([3]; Group 2 500 mg Fe/kg, Group 3 250 + 250 mg Fe/kg, scheduled euthanasia) | serum iron levels ([3]; ferrous fumarate 500 mg Fe/kg (Group 2), ferrous fumarate 250 + PIC 250 mg Fe/kg (Group 3), blood on days 1, 7, 14) |
| --- | --- | --- | --- | --- | --- | --- | --- |
| polysaccharide iron complex [PIC] | equivalent efficacy | better tolerated | fewer gastrointestinal side effects | – | – | – | – |
| O=C([O-])/C=C/C(=O)[O-].[Fe+2] [ferrous fumarate] | – | – | – | 200 to 250 mg/kg | about the same | body fat depletion, thyroid nodules, reddened mandibular lymph nodes, reddened stomach mucosa, small thymus, foci on the thymus, and dark fecal matter | significant increases |
